Assay results from publication PMC9780108, “An intrinsically disordered antimicrobial peptide dendrimer from stereorandomized virtual screening” (Cell Reports. Physical Science, 2022).
≈ marks a conversion by molar mass, not a printed value. Residues, ends and D or L forms follow the SMILES beside them.

What was measured:
[1] = tested on: P. aeruginosa PAO1; settings: for MIC at pH 5.0, P. aeruginosa PAO1: PAO1, pH 5; for MIC at pH 7.4, P. aeruginosa PAO1: PAO1, pH 7.4; for MIC at pH 8.0, P. aeruginosa PAO1: PAO1, pH 8
[2] = tested on: K. pneumoniae NCTC 418; settings: for MIC at pH 5.0, K. pneumoniae NCTC 418: NCTC 418, pH 5; for MIC at pH 7.4, K. pneumoniae NCTC 418: NCTC 418, pH 7.4; for MIC at pH 8.0, K. pneumoniae NCTC 418: NCTC 418, pH 8
[3] = tested on: P. aeruginosa ZEM9A; settings: ZEM9A, pH 7.4
[4] = tested on: S aureus COL (methicillin-resistant Staphylococcus aureus); settings: for MIC at pH 5.0, S aureus COL: COL (methicillin-resistant, pH 5); for MIC at pH 7.4, S aureus COL: COL (methicillin-resistant, pH 7.4); for MIC at pH 8.0, S aureus COL: COL (methicillin-resistant, pH 8)
[5] = tested on: K. pneumoniae OXA-48; settings: OXA-48, pH 7.4
[6] = tested on: S. aureus Newman; settings: Newman, pH 7.4
[7] = tested on: E. cloacae; settings: pH 7.4
[8] = tested on: P. aeruginosa ZEM-1A; settings: ZEM-1A, pH 7.4
[9] = tested on: S. maltophilia; settings: pH 7.4
[10] = tested on: P. aeruginosa PA14; settings: PA14, pH 7.4
[11] = tested on: B. cenocepacia; settings: pH 7.4
[12] = tested on: E. coli W3110; settings: for MIC at pH 5.0, E. coli W3110: W3110, pH 5; for MIC at pH 7.4, E. coli W3110: W3110, pH 7.4; for MIC at pH 8.0, E. coli W3110: W3110, pH 8
[13] = tested on: A. baumannii ATCC 19606; settings: for MIC at pH 5.0, A. baumannii ATCC 19606: ATCC 19606, pH 5; for MIC at pH 7.4, A. baumannii ATCC 19606: ATCC 19606, pH 7.4; for MIC at pH 8.0, A. baumannii ATCC 19606: ATCC 19606, pH 8

Compound	MIC at pH 5.0, P. aeruginosa PAO1 [1] [μg/mL]	MIC at pH 7.4, P. aeruginosa PAO1 [1] [μg/mL]	MIC at pH 8.0, P. aeruginosa PAO1 [1] [μg/mL]	MIC at pH 5.0, K. pneumoniae NCTC 418 [2] [μg/mL]	MIC at pH 7.4, K. pneumoniae NCTC 418 [2] [μg/mL]	MIC at pH 8.0, K. pneumoniae NCTC 418 [2] [μg/mL]	MIC, P. aeruginosa ZEM9A [3] [µg/mL]	MIC at pH 5.0, S aureus COL [4] [μg/mL]	MIC at pH 7.4, S aureus COL [4] [μg/mL]	MIC at pH 8.0, S aureus COL [4] [μg/mL]	MIC, K. pneumoniae OXA-48 [5] [µg/mL]	MIC, S. aureus Newman [6] [µg/mL]	MIC, E. cloacae [7] [µg/mL]	MIC, P. aeruginosa ZEM-1A [8] [µg/mL]	MIC, S. maltophilia [9] [µg/mL]	MIC, P. aeruginosa PA14 [10] [µg/mL]	MIC, B. cenocepacia [11] [µg/mL]	MIC at pH 5.0, E. coli W3110 [12] [μg/mL]	MIC at pH 7.4, E. coli W3110 [12] [μg/mL]	MIC at pH 8.0, E. coli W3110 [12] [μg/mL]	other results
CC(C)C[C@@H](NC(=O)[C@H](N)CCCCN)C(=O)NCCCC[C@@H](NC(=O)[C@@H](CC(C)C)NC(=O)[C@H](N)CCCCN)C(=O)N[C@H](CC(C)C)C(=O)NCCCC[C@@H](NC(=O)[C@@H](CC(C)C)NC(=O)[C@@H](CCCCNC(=O)[C@@H](CC(C)C)NC(=O)[C@H](N)CCCCN)NC(=O)[C@@H](CC(C)C)NC(=O)[C@H](N)CCCCN)C(=O)N[C@H](CCCCN)C(=O)N[C@H](CC(C)C)C(=O)N[C@H](CC(C)C)C(=O)NCCCC[C@@H](NC(=O)[C@@H](CC(C)C)NC(=O)[C@@H](CC(C)C)NC(=O)[C@@H](CCCCN)NC(=O)[C@@H](CCCCNC(=O)[C@@H](CC(C)C)NC(=O)[C@@H](CCCCNC(=O)[C@@H](CC(C)C)NC(=O)[C@H](N)CCCCN)NC(=O)[C@@H](CC(C)C)NC(=O)[C@H](N)CCCCN)NC(=O)[C@@H](CC(C)C)NC(=O)[C@@H](CCCCNC(=O)[C@@H](CC(C)C)NC(=O)[C@H](N)CCCCN)NC(=O)[C@@H](CC(C)C)NC(=O)[C@H](N)CCCCN)C(=O)N[C@H](CC(C)C)C(=O)N[C@H](CCCCN)C(=O)N[C@H](CCCCN)C(N)=O [D-X22] (HELM PEPTIDE1{[dK].[dL].[dK].[dL].[dK].[dK].[dL].[dL].[dK].[dL].[dK].[dK].[am]}|PEPTIDE2{[CC(C)C[C@@H](NC(=O)[C@H](N)CCCCN)C(=O)NCCCC[C@@H](NC(=O)[C@@H](CC(C)C)NC(=O)[C@H](N)CCCCN)C(=O)[*:2]].[dL]}|PEPTIDE3{[dK].[dL]}|PEPTIDE4{[dK].[dL].[dK].[dL].[dK].[dK].[dL].[dL]}|PEPTIDE5{[CC(C)C[C@@H](NC(=O)[C@H](N)CCCCN)C(=O)NCCCC[C@@H](NC(=O)[C@@H](CC(C)C)NC(=O)[C@H](N)CCCCN)C(=O)[*:2]].[dL]}|PEPTIDE6{[dK].[dL]}$PEPTIDE1,PEPTIDE2,5:R3-2:R2|PEPTIDE1,PEPTIDE3,3:R3-2:R2|PEPTIDE4,PEPTIDE5,5:R3-2:R2|PEPTIDE4,PEPTIDE6,3:R3-2:R2|PEPTIDE1,PEPTIDE4,9:R3-8:R2$$$V2.0)	16	4	4	> 64	> 64	16	8 (≈ 1.83 µM)	> 64	> 64	4	4 (≈ 0.914 µM)	64 (≈ 14.6 µM)	8 (≈ 1.83 µM)	4 (≈ 0.914 µM)	4 (≈ 0.914 µM)	4 (≈ 0.914 µM)	>64	8	4	4	MIC at pH 5.0, A. baumannii ATCC 19606 [13]: 16 μg/mL; MIC at pH 7.4, A. baumannii ATCC 19606 [13]: 8 μg/mL; MIC at pH 8.0, A. baumannii ATCC 19606 [13]: 4 μg/mL
CC(C)C[C@H](NC(=O)[C@H](CC(C)C)NC(=O)[C@H](CCCCN)NC(=O)[C@H](CCCCNC(=O)[C@H](CC(C)C)NC(=O)[C@H](CCCCNC(=O)[C@H](CC(C)C)NC(=O)[C@@H](N)CCCCN)NC(=O)[C@H](CC(C)C)NC(=O)[C@@H](N)CCCCN)NC(=O)[C@H](CC(C)C)NC(=O)[C@H](CCCCNC(=O)[C@H](CC(C)C)NC(=O)[C@@H](N)CCCCN)NC(=O)[C@H](CC(C)C)NC(=O)[C@@H](N)CCCCN)C(=O)NCCCC[C@H](NC(=O)[C@H](CC(C)C)NC(=O)[C@H](CC(C)C)NC(=O)[C@H](CCCCN)NC(=O)[C@H](CCCCNC(=O)[C@H](CC(C)C)NC(=O)[C@H](CCCCNC(=O)[C@H](CC(C)C)NC(=O)[C@@H](N)CCCCN)NC(=O)[C@H](CC(C)C)NC(=O)[C@@H](N)CCCCN)NC(=O)[C@H](CC(C)C)NC(=O)[C@H](CCCCNC(=O)[C@H](CC(C)C)NC(=O)[C@@H](N)CCCCN)NC(=O)[C@H](CC(C)C)NC(=O)[C@@H](N)CCCCN)C(=O)N[C@@H](CC(C)C)C(=O)N[C@@H](CCCCN)C(=O)N[C@@H](CCCCN)C(N)=O [L-X22] (HELM PEPTIDE1{K.L.K.L.K.K.L.L.K.L.K.K.[am]}|PEPTIDE2{[CC(C)C[C@H](NC(=O)[C@@H](N)CCCCN)C(=O)NCCCC[C@H](NC(=O)[C@H](CC(C)C)NC(=O)[C@@H](N)CCCCN)C(=O)[*:2]].L}|PEPTIDE3{K.L}|PEPTIDE4{K.L.K.L.K.K.L.L}|PEPTIDE5{[CC(C)C[C@H](NC(=O)[C@@H](N)CCCCN)C(=O)NCCCC[C@H](NC(=O)[C@H](CC(C)C)NC(=O)[C@@H](N)CCCCN)C(=O)[*:2]].L}|PEPTIDE6{K.L}$PEPTIDE1,PEPTIDE2,5:R3-2:R2|PEPTIDE1,PEPTIDE3,3:R3-2:R2|PEPTIDE4,PEPTIDE5,5:R3-2:R2|PEPTIDE4,PEPTIDE6,3:R3-2:R2|PEPTIDE1,PEPTIDE4,9:R3-8:R2$$$V2.0)	8	4	4	> 64	> 64	8	32 (≈ 7.31 µM)	> 64	> 64	8	8 (≈ 1.83 µM)	>64	4 (≈ 0.914 µM)	4 (≈ 0.914 µM)	4 (≈ 0.914 µM)	4 (≈ 0.914 µM)	>64	8	4	2	MIC at pH 5.0, A. baumannii ATCC 19606 [13]: 8 μg/mL; MIC at pH 7.4, A. baumannii ATCC 19606 [13]: 4 μg/mL; MIC at pH 8.0, A. baumannii ATCC 19606 [13]: 2 μg/mL
